Data published in patent US20250327028A1, “ENGINEERED PLATELETS AS TARGETED PROTEIN DEGRADERS” (Wisconsin Alumni Research Foundation, priority 2024, published 2025).

How the values were obtained:
[1] = tested on: HSP90; test: HAC-B-mediated HSP90 labeling, streptavidin-mediated immunoblot analysis; type: cell-based, murine; details: 4T1 cells, 2 h
Protocol: Identification of HAC-B-mediated HSP90 labeling: Streptavidin-mediated immunoblot analysis: 4T1 cells were seeded in 6-well culture plates with a density of 5×10^4 cells in each well and cultured for 24 h. Following washing with PBS twice, the cells were treated with free HAC-B at the indicated concentrations for 2 h. Then, the cells were washed with PBS and lysed on ice with the RIPA buffer containing PMSF (1 mM) and the phosphatase inhibitor cocktail for 30 min. Next, the lysates were centrifuged at 10,000 g for 10 minutes at 4° C., and the corresponding supernatants were collected, followed by quantification of the total proteins in the supernatant through the BCA assay. Subsequently, the proteins in the supernatant were mixed with ¼ volume of 5× sample buffer formulated by Tris-HCl (pH 6.8, 312.5 mM), sucrose (25%), SDS (10%), bromophenol blue (0.025%), and DTT (250 mM). After incubation for 1 h at room temperature, equal amounts of proteins from different samples ([…]) were loaded into the 10% Bis-Tris gel. The separated proteins were transferred to PVDF membrane before the membranes were blocked with 5% nonfat milk in PBS-T. The PVDF membrane was incubated with streptavidin-HRP at room temperature for 2 h. […] Finally, the bands were treated with ECL western blot substrate and detected by the iBright™ imaging system.

[2] = tested on: HSP90; test: HSP90 expression in cancer cells after iHAC treatment; type: cell-based; details: all the cancer cells, various concentrations
From the text: (§1) Immunoblot analysis: Immunoblot analysis was used to evaluate the expression of BRD4, HSP90, HSP90a, and PD-L1 in 4T1, WT MDA-MB-231, HSP90α-KO MDA-MB-231 or PEA-10 cells after various treatments and also served as the detection method for IP or co-IP experiments. The procedures for preparing IP or co-IP samples were indicated in the relevant experimental parts.
(§2) Sample preparation for various cancer cells after free HAC treatment: Various cells, including 4T1, WT MDA-MB-231, HSP90α-KO MDA-MB-231, or PEA-10 cells, were seeded in 6-well culture plates with a density of 5×10^4 cells in each well and cultured for 24 h. Then, if HAI pretreatment was performed, the cells were incubated in the HAI-containing blank medium at different concentrations for 2 h and washed with PBS twice before the following treatments. […]
(§3) General procedures for immunoblot analysis: After a 30-min lysis, the lysates were centrifuged at 10,000 g for 10 minutes at 4° C., and the corresponding supernatants were collected, followed by quantification of the total proteins in the supernatant through the BCA assay. […] Finally, the bands were treated with electrochemiluminescence (ECL) western blot substrate, detected by the iBright™ imaging system and quantified with ImageJ software. […]

[3] = target: T1, BRD4 (Homo sapiens, UniProt O60885); test: Immunoblot analysis of BRD4 degradation in HSP90α-KO MDA-MB-231 cells; type: cell-based; details: 24 h
T1 construct: endogenous in cells; host or cells: WT MDA-MB-231 (ATCC)
From the text: as §1, §2, §3

[4] = target: T1, BRD4; test: Immunoblot analysis of BRD4 degradation in WT MDA-MB-231 cells after free HAC treatment; type: cell-based
From the text: as §1
Sample preparation for various cancer cells after free HAC treatment: Various cells, including 4T1, WT MDA-MB-231, HSP90α-KO MDA-MB-231, or PEA-10 cells, were seeded in 6-well culture plates with a density of 5×10^4 cells in each well and cultured for 24 h. Then, if HAI pretreatment was performed, the cells were incubated in the HAI-containing blank medium at different concentrations for 2 h and washed with PBS twice before the following treatments. The medium in the corresponding wells was replaced with 1 mL of blank medium containing the DMSO vehicle, HACs, or the combinations of various free ligands at the predetermined concentrations. After incubation for the indicated time points, cells were washed with PBS and lysed on ice with the relevant lysis buffer containing PMSF (1 mM) and the phosphatase inhibitor cocktail for 30 min. As for the conditioned medium (CM), the culturing complete medium of the corresponding cancer cells in each well was collected after 24-h incubation and subjected to centrifugation at 2000 rpm for 5 min to obtain the supernatant. The filtrate of the supernatants was collected following filtration over a 0.45 μm filter, serving as the CM. […]
as §3

[5] = target: T2, BRD4 (Mus musculus, UniProt Q9ESU6); test: Immunoblot analysis of BRD4 degradation in 4T1 cells after free HAC treatment; type: cell-based, murine
T2 construct: endogenous in cells; host or cells: 4T1
From the text: as §1
Sample preparation for various cancer cells after free HAC treatment: Various cells, including 4T1, WT MDA-MB-231, HSP90α-KO MDA-MB-231, or PEA-10 cells, were seeded in 6-well culture plates with a density of 5×10^4 cells in each well and cultured for 24 h. Then, if HAI pretreatment was performed, the cells were incubated in the HAI-containing blank medium at different concentrations for 2 h and washed with PBS twice before the following treatments. The medium in the corresponding wells was replaced with 1 mL of blank medium containing the DMSO vehicle, HACs, or the combinations of various free ligands at the predetermined concentrations. After incubation for the indicated time points, cells were washed with PBS and lysed on ice with the relevant lysis buffer containing PMSF (1 mM) and the phosphatase inhibitor cocktail for 30 min. As for the conditioned medium (CM), the culturing complete medium of the corresponding cancer cells in each well was collected after 24-h incubation and subjected to centrifugation at 2000 rpm for 5 min to obtain the supernatant. The filtrate of the supernatants was collected following filtration over a 0.45 μm filter, serving as the CM. Regarding the cell samples for BRD4 detection, the lysis buffer containing HEPES-KOH (pH=7.5, 10 mM), NaCl (500 mM), EDTA (5 mM), NP-40 (1%), and SDS (0.1%) was used with the indicated PMSF and phosphatase inhibitor cocktail. As for PD-L1 detection, RIPA buffer (Thermo Fisher Scientific/J63306.AP) was used with the indicated PMSF and phosphatase inhibitor cocktail.
General procedures for immunoblot analysis: After a 30-min lysis, the lysates were centrifuged at 10,000 g for 10 minutes at 4° C., and the corresponding supernatants were collected, followed by quantification of the total proteins in the supernatant through the BCA assay. Afterward, the proteins in the supernatant were mixed with the loading buffer and heated at 95° C. for 15 min. Equal amounts of proteins from different samples ([…]) were loaded into the Bis-Tris gel formulated with Bis-Tis buffer, 30% acrylamide/Bis, 10% ammonium persulfate (APS) solution, and TEMED. The separated proteins were transferred to polyvinylidene fluoride (PVDF) membranes before the membranes were blocked with 5% nonfat milk in PBS-T. Next, the PVDF membranes were incubated with primary antibodies overnight at 4° C., if necessary, followed by the incubation with the goat-anti-rabbit IgG H & L (HRP) secondary antibodies at room temperature for 2 h. Finally, the bands were treated with electrochemiluminescence (ECL) western blot substrate, detected by the iBright™ imaging system and quantified with ImageJ software. 8% Bis-Tris gels were used for BRD4 detection, and 10% gels were adopted to analyze PD-L1.

Row | Structure (SMILES) | concentration that labels HSP90 with higher efficiency [1] | biotin labeling of HSP90 (detected by HRP-streptavidin) ([1]; various concentrations) | HSP90 expression [2] | remaining BRD4 degradation potency [3] | effect of HSP90α deficiency on BRD4 degradation efficacy ([3]; lower and higher concentration ranges) | shape of concentration response of BRD4 degradation ([4]; at relatively lower concentrations, reversed at 20 μM) | time dependence of BRD4 downregulation ([4]; at the two effective concentrations) | BRD4 degradation in presence of proteasome inhibitor epoxomicin (Epox) ([5]; 4T1 and WT MDA-MB-231 cells (FIGS. 2K, 2L), lower or higher effective concentrations) | higher effective concentration that efficiently reduces BRD4 expression ([5]; 4T1 cells, 24 h) [µM] | lower effective concentration that efficiently reduces BRD4 expression ([5]; 4T1 cells, 24 h) [µM] | time dependence of BRD4 downregulation ([5]; 4T1 cells, at the two effective concentrations) | shape of concentration response of BRD4 degradation ([5]; 4T1 cells, at relatively lower concentrations, reversed at 20 μM)
1 | N#CCN(C(=O)CCCC[C@@H]1SC[C@@H]2NC(=O)N[C@@H]21)S(=O)(=O)c1ccc(C(=O)NCCCn2c(Sc3cc4c(cc3I)OCO4)nc3c(N)ncnc32)cc1 [HAC-B, N-(3-(6-amino-8-((6-iodobenzo[d][1,3]dioxol-5-yl)thio)-9H-purin-9-yl)propyl)-4-(N-(cyanomethyl)-N-(5-((3aS,4S,6aR)-2-oxohexahydro-1H-thieno[3,4-d]imidazol-4-yl)pentanoyl)sulfamoyl)benzamide] | over 0.8 μM | modified HSP90 within 2 h in a concentration-dependent manner |  |  |  |  |  |  |  |  |  | 
2 | Cc1sc2c(c1C)C(c1ccc(Cl)cc1)=N[C@@H](CC(=O)NCc1cn(CCCC(=O)N(CC#N)S(=O)(=O)c3ccc(C(=O)NCCCn4c(Sc5cc6c(cc5I)OCO6)nc5c(N)ncnc54)cc3)nn1)c1nnc(C)n1-2 [iHAC, (S)—N-(3-(6-amino-8-((6-iodobenzo[d][1,3]dioxol-5-yl)thio)-9H-purin-9-yl)propyl)-4-(N-(4-(4-((2-(4-(4-chlorophenyl)-2,3,9-trimethyl-6H-thieno[3,2-f][1,2,4]triazolo[4,3-a][1,4]diazepin-6-yl)acetamido)methyl)-1H-1,2,3-triazol-1-yl)butanoyl)-N-(cyanomethyl)sulfamoyl)benzamide] |  |  | maintained a relatively stable HSP90 expression | partially maintains the degradation potency | substantially compromised the BRD4 degradation efficacy | hook effect | in a time-dependent manner | rescue effect induced by proteasome inhibitor epoxomicin (Epox) | 20 | 0.16 | in a time-dependent manner | hook effect
